Test results as given in patent US6352727B1, “Bactericides” (Oji Paper Co., Ltd., priority 1998, dated 2002).

What was measured:
Assay type in all cases: cell-based
[1] = test system: Staphylococcus aureus IF012732; test: Test of bactericidal power of bactericides mixed with meat (beef) extract
Description: (§1) It was evaluated whether bactericidal power was lowered when the bactericides shown in Table 20 were mixed with beef extract (Wako Junyaku) according to the following method. For comparison, sodium hypochlorite was also evaluated. Strains used herein were Staphylococcus aureus IF012732 and Salmonella enteritidis IF003313.
(§2) One ml of each of bactericides shown in Table 20 and one ml of 5% beef extract (dissolved in sterilized water) were mixed at a ratio of one to one, and allowed to stand at a room temperature. After 10 minutes, 10 μl of bacteria suspension previously prepared was added to each of the bactericides and the mixture, and allowed to stand after stirred. Change of number of bacteria in the mixture solution was determined (one minute, five minutes and 10 minutes after addition of bacteria). According to previous experiments, it was confirmed that general viable count was 10 or less per one ml of 5% beef extract. As shown in Table 21 and Table 22, when 0.02% of sodium hypochlorite was mixed with a beef extract, bactericidal power thereof was lowered.
The bactericides shown in Table 23 were examined for bactericidal power in a similar manner to that of Test Example 7.

[2] = test system: Salmonella enteritidis IF003313; test: as above
Description: as §1, §2

[3] = test system: Salmonella enteritidis; test: Test of bactericidal power of bactericides after treating beef (block); conditions: 5 min
Description: (§3) 100 ml of each of bactericides shown in Table 25 was charged into a vessel. 21 g of beef (block) was immersed in the bactericide, and allowed to stand at room temperature. After 24 hours, the beef was removed, and general bacterium (bacterium liberated from the beef) present in the bactericide were removed using a sterilized filter. 30 μl of bacteria suspension of Staphylococcus aureus or Salmonella enteritidis was added to 2 ml of the bactericide after used for the treatment of the beef. After five minutes, the number of bacterium in the bactericide was counted. As for 0.01% sodium hypochlorite, a similar test was conducted, and the results were compared.

[4] = test system: Staphylococcus aureus; test: as above; conditions: 5 min
Description: as §3

[5] = test system: general bacterium on the surface of beef; test: Number of bacterium on the surface of beef treated with bactericide; conditions: 5 minutes immersion, preserved at 4° C.
Description: 50 ml of each of bactericides was charged in a vessel, and then 15 g of beef (block) was immersed in the bactericide, and allowed to stand at room temperature (surface sterilization). After 5 minutes, the bactericide was removed, and only the beef was preserved in the vessel at 4° C. After certain period ((1) after one day, (2) after three days, (3) after six days), 25 ml of physiological saline was added to the vessel containing the beef, and shaked. The number of the bacterium cells liberated from the beef into the physiological saline was counted. It was confirmed according to preliminary experiments that the number of the bacterium cells per one gram of the beef existing on the surface of the beef before sterilization treatment was 10 or less. Sterilized water and sodium hypochlorite were also examined.

[6] = test system: Trichophyton mentagrphytes; test: Test of activity against Trichophyton mentagrphytes (paper disk, block circle); conditions: 8 mm paper disk with 25 μl, dried 24 hours; cultured at 28° C. for five days
Description: A paper disk having a diameter of 8 mm that was previously subjected to dry heat sterilization, was impregnated with 25 μl of each of fungicides shown in Table 8 and allowed to stand for 24 hours to be dried. The paper disk was put on agar medium on which spore suspension of Trichophyton […] previously prepared was spread, and cultured at 28° C. for five days. […] No block circle was formed when a fungicide containing only chitosan (Comparative Example 4) was used.

[7] = test system: Bacillus subtilis; test: Test of persistency of bactericidal power on stainless steel
Description: (§4) Each of bactericide shown in Table 8 was sprayed on a sterilized stainless steel plate (15 μl/cm^2), and allowed to stand for seven days in a sterilized room to be dried. Each of the bacteria suspension previously cultured in a similar manner to that described above was diluted with physiological saline. Then, 10 μl of the diluted suspension was spread on the stainless steel. After allowed to stand for 10 minutes, bacterium on the stainless steel were wiped with absorbent cotton, and liberated into physiological saline. Then, visible count was counted. For comparison, 70% ethanol was used as a conventional bactericide. Strong bactericidal power of each bactericide of examples containing both eucalyptus extract and chitosan was maintained, even after elapse of seven days, on the stainless steel on which it was spread. The bactericidal power was stronger than that of bactericides containing only eucalyptus extract (Comparative Examples 1 to 3) or a bactericide containing only chitosan (Comparative Example 4).
(§5) Persistency of bactericidal power of the bactericides shown in Table 16 was evaluated in a similar manner to that of Test Example 3 (allowed to stand for one month). After elapse of one month from spraying of the bactericide, bactericidal power of the bactericide containing glycerol fatty acid ester in addition to eucalyptus extract and chitosan (Example 4) was stronger than that of bactericides containing no glycerol fatty acid ester (Comparative Example 5).

[8] = test system: Escherichia coli; test: as above
Description: as §4, §5

[9] = test system: MRSA; test: as above
Description: as §4, §5

[10] = test system: Salmonella enteritidis; test: as above
Description: as §4, §5

[11] = test system: Staphylococcus aureus; test: as above
Description: as §4, §5

[12] = mixing treatment of beef extract and bactericide (10 min) done, 1 min
[13] = mixing treatment of beef extract and bactericide (10 min) done, 5 min
[14] = mixing treatment of beef extract and bactericide (10 min) done, 10 min
[15] = mixing treatment with beef extract none, 1 min
[16] = mixing treatment with beef extract none, 5 min
[17] = mixing treatment with beef extract none, 10 min
[18] = treatment of beef done (24 hours)

## [Na+].[O-]Cl [0.02% Sodium hypochloryte, sodium hypochlorite]
[1]; [12]
  Viable count: 6.5 × 10^6 Number/ml
[1]; [13]
  Viable count: 6.5 × 10^6 Number/ml
[1]; [14]
  Viable count: 6.4 × 10^6 Number/ml
[1]; [15]
  Viable count: <200 Number/ml
[1]; [16]
  Viable count: <200 Number/ml
[1]; [17]
  Viable count: <200 Number/ml
[2]; [12]
  Viable count: 4.5 × 10^5 Number/ml
[2]; [13]
  Viable count: 4.3 × 10^5 Number/ml
[2]; [14]
  Viable count: 4.3 × 10^5 Number/ml
[2]; [15]
  Viable count: <200 Number/ml
[2]; [16]
  Viable count: <200 Number/ml
[2]; [17]
  Viable count: <200 Number/ml

## OCl [0.01% Sodium hypochlorite, sodium hypochlorite]
[3]; [18]
  Viable count: 1.5 × 10^5 Number/ml
[3]; treatment of beef none
  Viable count: <1000 Number/ml
[4]; [18]
  Viable count: 1.8 × 10^5 Number/ml
[4]; treatment of beef none
  Viable count: <1000 Number/ml
[5]; After 3 days
  Number of general bacterium: 1.4 × 10^5 Number/g
[5]; After 6 days
  Number of general bacterium: 3.4 × 10^7 Number/g
[5]; After one day
  Number of general bacterium: 6.7 × 10^2 Number/g

## CCO [70% Ethanol, Ethanol]
[6]
  Diameter of block circle: None
[7]
  Viable count (After 7 days): 3.0 × 10^6 Number/100 cm^2
[8]
  Viable count (After 7 days): 2.2 × 10^6 Number/100 cm^2
[9]
  Viable count (After 7 days): 1.2 × 10^6 Number/100 cm^2
[10]
  Viable count (After 7 days): 4.5 × 10^6 Number/100 cm^2
[11]
  Viable count (After 7 days): 3.5 × 10^6 Number/100 cm^2
